Laboratory results reported in patent publication US10913744B2, “LRRK2 inhibitors and methods of making and using the same” (Dana-Farber Cancer Institute, Inc., priority 2015, dated 2021).
Read-outs that look alike come from different tables or passages of the source.

How the values were obtained:
[1] = target: IGF-1R (Homo sapiens (Human), UniProt P08069); assay: Dundee profiling
[2] = target: DYRK1A (Homo sapiens (Human), UniProt Q13627); assay: Dundee profiling
[3] = target: EPH-B1 (Homo sapiens (Human), UniProt P54762); assay: Dundee profiling
[4] = target: PDGFRA (Homo sapiens (Human), UniProt P16234); assay: Dundee profiling
[5] = target: IRR (Homo sapiens (Human), UniProt P14616); assay: Dundee profiling
Sequence of IRR (P14616 27-1297, species assumed): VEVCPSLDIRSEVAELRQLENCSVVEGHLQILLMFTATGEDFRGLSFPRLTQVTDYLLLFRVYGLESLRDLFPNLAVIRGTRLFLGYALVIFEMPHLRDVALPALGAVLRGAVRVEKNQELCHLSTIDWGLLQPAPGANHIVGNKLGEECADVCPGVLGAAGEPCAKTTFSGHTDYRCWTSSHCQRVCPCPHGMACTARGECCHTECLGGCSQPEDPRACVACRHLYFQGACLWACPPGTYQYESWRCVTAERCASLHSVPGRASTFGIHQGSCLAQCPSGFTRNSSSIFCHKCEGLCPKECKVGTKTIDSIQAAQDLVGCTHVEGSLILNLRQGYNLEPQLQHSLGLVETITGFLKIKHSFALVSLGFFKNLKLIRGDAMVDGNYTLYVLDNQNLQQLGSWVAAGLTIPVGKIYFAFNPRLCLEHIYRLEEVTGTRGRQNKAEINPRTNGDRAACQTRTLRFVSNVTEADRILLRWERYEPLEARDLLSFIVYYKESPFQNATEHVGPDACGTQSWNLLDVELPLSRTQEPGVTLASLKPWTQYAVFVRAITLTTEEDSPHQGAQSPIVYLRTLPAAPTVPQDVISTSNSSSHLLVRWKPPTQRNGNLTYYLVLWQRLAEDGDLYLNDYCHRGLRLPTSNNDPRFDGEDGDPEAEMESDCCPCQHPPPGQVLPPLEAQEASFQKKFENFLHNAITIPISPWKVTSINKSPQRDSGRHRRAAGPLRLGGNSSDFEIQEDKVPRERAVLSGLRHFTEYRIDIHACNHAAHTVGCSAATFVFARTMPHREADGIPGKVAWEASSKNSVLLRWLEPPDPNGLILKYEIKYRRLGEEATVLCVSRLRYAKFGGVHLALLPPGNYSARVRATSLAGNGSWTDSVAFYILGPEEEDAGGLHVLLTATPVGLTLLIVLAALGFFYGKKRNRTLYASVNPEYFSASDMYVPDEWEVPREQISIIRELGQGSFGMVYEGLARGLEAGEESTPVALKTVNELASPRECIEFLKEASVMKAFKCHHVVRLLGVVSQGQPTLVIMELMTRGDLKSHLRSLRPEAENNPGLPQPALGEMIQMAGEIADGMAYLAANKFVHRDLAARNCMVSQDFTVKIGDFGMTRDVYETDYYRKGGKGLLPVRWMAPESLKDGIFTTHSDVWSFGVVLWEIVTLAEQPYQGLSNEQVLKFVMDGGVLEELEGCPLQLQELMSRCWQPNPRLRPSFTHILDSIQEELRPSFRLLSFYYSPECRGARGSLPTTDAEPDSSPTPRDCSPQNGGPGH

[6] = target: IR (Homo sapiens (Human), UniProt P06213); assay: Dundee profiling
Sequence of IR (P06213 28-1382): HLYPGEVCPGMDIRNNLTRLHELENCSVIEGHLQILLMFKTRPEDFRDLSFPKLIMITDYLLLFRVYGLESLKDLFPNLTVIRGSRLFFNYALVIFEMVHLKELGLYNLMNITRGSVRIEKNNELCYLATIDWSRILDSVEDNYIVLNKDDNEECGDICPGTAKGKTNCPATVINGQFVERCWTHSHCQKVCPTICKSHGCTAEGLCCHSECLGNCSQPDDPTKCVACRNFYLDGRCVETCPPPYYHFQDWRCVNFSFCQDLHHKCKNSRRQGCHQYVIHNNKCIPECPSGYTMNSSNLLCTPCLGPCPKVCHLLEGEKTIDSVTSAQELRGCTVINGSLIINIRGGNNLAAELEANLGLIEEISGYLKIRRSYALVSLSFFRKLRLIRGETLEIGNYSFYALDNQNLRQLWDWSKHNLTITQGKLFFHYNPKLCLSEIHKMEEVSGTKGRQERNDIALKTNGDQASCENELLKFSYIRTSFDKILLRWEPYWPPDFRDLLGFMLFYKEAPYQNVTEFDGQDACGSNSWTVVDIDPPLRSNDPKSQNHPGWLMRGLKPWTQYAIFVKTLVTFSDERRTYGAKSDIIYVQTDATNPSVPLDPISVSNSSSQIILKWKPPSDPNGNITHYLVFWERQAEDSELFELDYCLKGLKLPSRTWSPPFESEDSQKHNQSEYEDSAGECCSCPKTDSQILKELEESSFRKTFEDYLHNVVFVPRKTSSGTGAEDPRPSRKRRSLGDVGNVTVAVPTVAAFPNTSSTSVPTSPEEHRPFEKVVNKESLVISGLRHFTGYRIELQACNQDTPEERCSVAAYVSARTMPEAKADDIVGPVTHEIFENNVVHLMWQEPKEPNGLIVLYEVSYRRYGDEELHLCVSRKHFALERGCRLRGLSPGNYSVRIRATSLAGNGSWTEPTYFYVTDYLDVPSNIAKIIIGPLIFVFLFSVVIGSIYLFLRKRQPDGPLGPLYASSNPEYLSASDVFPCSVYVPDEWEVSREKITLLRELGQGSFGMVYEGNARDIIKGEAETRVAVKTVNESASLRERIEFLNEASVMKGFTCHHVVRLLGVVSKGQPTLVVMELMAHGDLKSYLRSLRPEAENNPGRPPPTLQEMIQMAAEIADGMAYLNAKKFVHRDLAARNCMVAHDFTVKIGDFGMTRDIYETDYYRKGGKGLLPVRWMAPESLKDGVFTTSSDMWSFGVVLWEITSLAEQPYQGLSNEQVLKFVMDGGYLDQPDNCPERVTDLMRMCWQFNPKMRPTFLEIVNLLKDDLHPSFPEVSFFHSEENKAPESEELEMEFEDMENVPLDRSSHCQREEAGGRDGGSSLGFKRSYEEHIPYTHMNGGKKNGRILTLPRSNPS

[7] = target: EGFR (Homo sapiens (Human), UniProt P00533); assay: KinomeScan; type: binding; details: 1 uM
[8] = target: TYK2 (JH1domain-catalytic) (Homo sapiens (Human), UniProt P29597); assay: KinomeScan; type: binding; details: 1 uM
Sequence of TYK2 (JH1domain-catalytic) (P29597 897-1176): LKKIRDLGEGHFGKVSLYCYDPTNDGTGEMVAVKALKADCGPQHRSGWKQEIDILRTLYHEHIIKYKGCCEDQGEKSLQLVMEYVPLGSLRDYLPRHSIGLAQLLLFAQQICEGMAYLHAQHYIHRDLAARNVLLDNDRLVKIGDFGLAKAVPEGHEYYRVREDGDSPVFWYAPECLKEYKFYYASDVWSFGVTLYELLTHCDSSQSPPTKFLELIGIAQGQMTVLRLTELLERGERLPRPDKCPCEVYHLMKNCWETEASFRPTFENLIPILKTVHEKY

[9] = target: TrkA (Homo sapiens (Human), UniProt P04629); assay: Dundee profiling
[10] = target: T1, MAP4K3 (Homo sapiens (Human), UniProt Q8IVH8); assay: Dundee profiling
T1 sequence (Q8IVH8 whole entry, species assumed): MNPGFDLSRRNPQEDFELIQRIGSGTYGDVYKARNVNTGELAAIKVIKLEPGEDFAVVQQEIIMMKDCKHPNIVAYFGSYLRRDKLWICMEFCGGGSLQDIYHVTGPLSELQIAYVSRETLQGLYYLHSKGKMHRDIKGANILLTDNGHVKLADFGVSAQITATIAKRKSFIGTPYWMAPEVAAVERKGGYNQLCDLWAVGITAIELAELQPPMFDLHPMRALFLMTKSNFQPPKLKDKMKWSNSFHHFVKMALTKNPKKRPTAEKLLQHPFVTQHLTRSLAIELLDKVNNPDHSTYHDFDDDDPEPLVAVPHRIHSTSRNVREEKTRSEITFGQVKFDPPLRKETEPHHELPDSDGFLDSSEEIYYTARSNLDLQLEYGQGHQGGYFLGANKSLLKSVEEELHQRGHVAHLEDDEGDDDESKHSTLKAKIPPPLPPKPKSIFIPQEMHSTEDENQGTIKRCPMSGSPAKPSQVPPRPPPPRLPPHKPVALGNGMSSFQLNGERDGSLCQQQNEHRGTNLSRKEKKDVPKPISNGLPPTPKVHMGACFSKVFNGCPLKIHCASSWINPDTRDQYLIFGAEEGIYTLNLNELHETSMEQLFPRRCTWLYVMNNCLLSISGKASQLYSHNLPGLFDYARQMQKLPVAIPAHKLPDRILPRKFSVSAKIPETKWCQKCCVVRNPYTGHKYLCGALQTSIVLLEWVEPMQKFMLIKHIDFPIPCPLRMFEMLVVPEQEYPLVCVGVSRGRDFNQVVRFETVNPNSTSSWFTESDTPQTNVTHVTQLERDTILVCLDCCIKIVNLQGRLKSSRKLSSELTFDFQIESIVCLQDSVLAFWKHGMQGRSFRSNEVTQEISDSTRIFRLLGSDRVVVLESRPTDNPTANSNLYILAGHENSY

[11] = target: CHK1 (Homo sapiens (Human), UniProt O14757); assay: Dundee profiling
[12] = target: DAPK1 (Homo sapiens (Human), UniProt P53355); assay: Dundee profiling
[13] = test system: PINK; assay: Dundee profiling
[14] = test system: CK2; assay: Dundee profiling
[15] = target: ULK1 (Homo sapiens (Human), UniProt O75385); assay: KinomeScan; type: binding; details: 1 uM
[16] = target: PRKR (Homo sapiens (Human), UniProt P19525); assay: KinomeScan; type: binding; details: 1 uM
[17] = target: MELK (Homo sapiens (Human), UniProt Q14680); assay: Dundee profiling
[18] = test system: panel of 451 kinases; assay: KinomeScan panel selectivity; type: binding; details: 1 μM
Text: The kinase selectivity of Compound 18 was further evaluated by KinomeScan.

[19] = target: SRPK1 (Homo sapiens (Human), UniProt Q96SB4); assay: Dundee profiling
[20] = target: MARK4 (Homo sapiens (Human), UniProt Q96L34); assay: KinomeScan; type: binding; details: 1 uM
[21] = target: PAK5 (Homo sapiens (Human), UniProt Q9P286); assay: Dundee profiling
[22] = target: NUAK1 (Homo sapiens (Human), UniProt O60285); assay: Dundee profiling
Sequence of NUAK1 (O60285 whole entry, species assumed): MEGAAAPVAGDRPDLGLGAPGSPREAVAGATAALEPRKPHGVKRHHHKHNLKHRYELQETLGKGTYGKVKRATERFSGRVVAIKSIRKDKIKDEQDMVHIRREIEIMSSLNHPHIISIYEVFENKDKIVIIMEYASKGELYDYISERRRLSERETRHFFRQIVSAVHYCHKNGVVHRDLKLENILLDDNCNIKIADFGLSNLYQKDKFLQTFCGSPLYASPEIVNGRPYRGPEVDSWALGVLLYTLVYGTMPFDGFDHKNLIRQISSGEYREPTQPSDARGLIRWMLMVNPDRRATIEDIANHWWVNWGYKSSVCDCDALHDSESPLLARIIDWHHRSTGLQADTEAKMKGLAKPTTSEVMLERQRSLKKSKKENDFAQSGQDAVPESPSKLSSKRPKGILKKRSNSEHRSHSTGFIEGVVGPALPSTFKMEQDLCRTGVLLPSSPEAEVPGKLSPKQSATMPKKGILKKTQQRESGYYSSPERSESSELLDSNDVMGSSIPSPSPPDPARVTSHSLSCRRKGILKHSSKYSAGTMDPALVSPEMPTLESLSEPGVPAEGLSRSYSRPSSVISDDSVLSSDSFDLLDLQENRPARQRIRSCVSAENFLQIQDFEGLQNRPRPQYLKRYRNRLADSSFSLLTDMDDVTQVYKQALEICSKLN

[23] = target: Lck (Homo sapiens (Human), UniProt P06239); assay: Dundee profiling
Sequence of Lck (P06239 whole entry, species assumed): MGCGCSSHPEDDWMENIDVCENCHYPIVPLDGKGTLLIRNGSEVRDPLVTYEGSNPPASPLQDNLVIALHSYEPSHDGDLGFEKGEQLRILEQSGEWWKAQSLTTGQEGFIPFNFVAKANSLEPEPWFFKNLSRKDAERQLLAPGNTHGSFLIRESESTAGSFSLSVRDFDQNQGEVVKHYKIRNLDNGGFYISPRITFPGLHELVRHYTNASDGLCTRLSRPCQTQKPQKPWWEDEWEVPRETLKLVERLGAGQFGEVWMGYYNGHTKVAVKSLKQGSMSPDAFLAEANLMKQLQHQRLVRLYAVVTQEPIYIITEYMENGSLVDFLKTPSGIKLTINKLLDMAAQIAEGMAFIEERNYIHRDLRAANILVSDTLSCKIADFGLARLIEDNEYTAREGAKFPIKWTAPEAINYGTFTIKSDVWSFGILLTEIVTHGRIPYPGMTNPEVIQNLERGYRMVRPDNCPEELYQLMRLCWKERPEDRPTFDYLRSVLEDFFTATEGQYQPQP

[24] = target: MET (M1250T) (Homo sapiens (Human), UniProt P08581, M1250T); assay: KinomeScan; type: binding; details: 1 uM
[25] = target: EGFR (L747-S752del, P753S) (Homo sapiens (Human), UniProt P00533, DEL747-752/P753S); assay: KinomeScan; type: binding; details: 1 uM
[26] = target: DDR2 (Homo sapiens (Human), UniProt Q16832); assay: Dundee profiling
[27] = target: SmMLCK (Homo sapiens (Human), UniProt Q15746); assay: Dundee profiling
[28] = target: JNK3 (Homo sapiens (Human), UniProt P53779); assay: KinomeScan; type: binding; details: 1 uM
[29] = target: LOK (Homo sapiens (Human), UniProt O94804); assay: KinomeScan; type: binding; details: 1 uM
[30] = target: PAK2 (Homo sapiens (Human), UniProt Q13177); assay: Dundee profiling
[31] = target: CSK (Homo sapiens (Human), UniProt P41240); assay: Dundee profiling
[32] = target: EPH-A2 (Homo sapiens (Human), UniProt P29317); assay: Dundee profiling
[33] = target: T1, MAP4K3; assay: KinomeScan; type: binding; details: 1 uM
[34] = target: ASK1 (Homo sapiens (Human), UniProt Q99683); assay: Dundee profiling
[35] = read-out: percent remaining enzymatic activity, I1, 1 μM
[36] = read-out: percent remaining enzymatic activity, I10
[37] = read-out: percent remaining enzymatic activity

CNc1nc(Nc2ccc(C(=O)N3CCOCC3)cc2OC)nc2[nH]cc(Cl)c12 [Compound 18, (4-((5-chloro-4-(methylamino)-7H-pyrrolo[2,3-d]pyrimidin-2-yl)amino)-3-methoxyphenyl)(morpholino)methanone]
remaining activity at 1 µM [1, 35]: 13% | remaining activity at 1 µM [1, 36]: 9% | remaining activity at 1 µM [2, 35]: 49% | remaining activity at 1 µM [2, 36]: 8% | remaining activity at 1 µM [3, 35]: 119% | remaining activity at 1 µM [3, 36]: 126% | remaining activity at 1 µM [4, 35]: 109% | remaining activity at 1 µM [4, 36]: 89% | remaining activity at 1 µM [5, 35]: 31% | remaining activity at 1 µM [5, 36]: 10% | remaining activity at 1 µM [6, 35]: 21% | remaining activity at 1 µM [6, 36]: 10% | KinomeScan value [7]: 93 | KinomeScan value [8]: 99 | remaining activity at 1 µM [9, 35]: 85% | remaining activity at 1 µM [9, 36]: 84% | percent remaining enzymatic activity ([10]; I10): 41% | remaining activity at 1 µM [10, 37]: 98% | percent remaining enzymatic activity ([11]; I10): 93% | remaining activity at 1 µM [11, 37]: 110% | remaining activity at 1 µM [12, 35]: 21% | remaining activity at 1 µM [12, 36]: 5% | percent remaining enzymatic activity ([13]; I1, 1 μM): 105% | percent remaining enzymatic activity ([13]; I10): 89% | percent remaining enzymatic activity ([14]; I1, 1 μM): 94% | percent remaining enzymatic activity ([14]; I10): 70% | KinomeScan value [15]: 100 | KinomeScan value [16]: 96 | remaining activity at 1 µM [17, 35]: 118% | remaining activity at 1 µM [17, 36]: 79% | kinase selectivity, interactions detected [18]: no interactions detected with kinases other than LRRK2[G2019S] with the exception of TTK and RPS6KA4 | remaining activity at 1 µM [19, 35]: 89% | remaining activity at 1 µM [19, 36]: 31% | KinomeScan value [20]: 82 | remaining activity at 1 µM [21, 35]: 89% | remaining activity at 1 µM [21, 36]: 70% | percent remaining enzymatic activity ([22]; I10): 17% | remaining activity at 1 µM [22, 37]: 75% | remaining activity at 1 µM [23, 35]: 97% | remaining activity at 1 µM [23, 36]: 111% | KinomeScan value [24]: 80 | KinomeScan value [25]: 94 | remaining activity at 1 µM [26, 35]: 98% | remaining activity at 1 µM [26, 36]: 93% | IC50 [27]: 81.3 nM | inhibition at 1 µM ([27]; read-out: inhibition of kinase activity of the DMSO control): > 90% | remaining activity at 1 µM [27, 35]: 9% | remaining activity at 1 µM [27, 36]: 1% | KinomeScan value [28]: 67 | KinomeScan value [29]: 100 | remaining activity at 1 µM [30, 35]: 110% | remaining activity at 1 µM [30, 36]: 102% | percent remaining enzymatic activity ([31]; I10): 92% | remaining activity at 1 µM [31, 37]: 89% | remaining activity at 1 µM [32, 35]: 104% | remaining activity at 1 µM [32, 36]: 101% | KinomeScan value [33]: 100 | remaining activity at 1 µM [34, 35]: 56% | remaining activity at 1 µM [34, 36]: 10%
